The text below walks through data of patent publication US12559784B2 (priority 2023, dated 2026).

In series [1] the test system is alkaline phosphatase. It counts as biochemical. As for the experimental part:
New stocks were made the of the 1:100 alkaline phosphatase reaction reagents.
The conditions included: 1:100 dilution of alkaline phosphatase reaction reagent with two solvents (buffered saline and ethanol), dosing in 0.5 mL microcentrifuge tubes with 20 μL of chemical added to 180 μL of reaction reagent, and incubating with p-Nitrophenyl phosphate disodium salt (PNPP) substrate for 1-hour.

For a further series, the system named is porcine skin. The settings on record: R 1 and 2. As for the experimental part: Our initial studies involved using fresh and frozen porcine skin “buttons”. These buttons were punched out of porcine skin (Spear Products, Cooopersburg, PA) using a […] biopsy punch tool. Three different kinds of skin buttons were prepared from fresh porcine skin, frozen porcine skin, and frozen porcine skin with the fatty layer removed. […] The next day, the tubes were taken out and vortexed and 500 μL of the solution was aliquoted into cuvettes to read at three different optical density wavelengths (OD190, OD290, OD300) to evaluate the best response.
Skin Preparation • 1. Thaw 2 pieces of frozen porcine skin • 2. Punch out buttons: 24 buttons in each tube filled with 40 mL PB S-Azide 96-well plate Preparation • 1. Plate layout for dosing:
Procedure • 1. Dose each tissue with 140 μL of test chemical • 2. […] Take out of incubator and vortex pulse 3× • 2. Aliquot 500 μL to cuvette and read results at OD190, OD290, and OD300
There were three readings done at an optical density of 190, 290, and 300 nm to evaluate the best response. […] To address the variable exposure conditions, our next studies involved placing a larger porcine skin section into a holder that exposes only the epidermis side with no potential for test chemical exposure from the backside or through the sides.

The subject of the next series is phosphatase. It counts as biochemical, porcine. As to conditions: for percent of phosphatase measured (optical density compared to the naïve condition), average: average of two readings; for percent of phosphatase measured (optical density compared to the naïve condition): single readings. The protocol:
Our next studies involved applying the test substance (500 μL) directly to the epidermis side of previously frozen porcine skin (Spear Products, Coopersburg, PA) that is placed in a holder that only exposes the epidermis side for 30 minutes, adding phosphate buffered saline (PBS) with added sodium azide (metabolic inhibitor that ensure no viable tissue), then aliquoting into cuvettes to read at an optical density of 300 nm. […] So, at the end of the initial studies described above, almost out of frustration, we tried to probe for released phosphatase activity using p-Nitrophenyl phosphate disodium salt (PNPP; Sigma Aldrich, St. Louis, MO) substrate solution to detect any presence of phosphatase.
Preparation • 1. Thaw 2 pieces of frozen porcine skin • a. Punch out as many skin discs and mount in holders • 2. Label cuvettes (3 for each chemical) Procedure • 1. Add 500 μL of test chemical to holder; incubate at room temperate for 30 minutes • 2. After 30 minutes, add 2 mL of PBS-Azide to both the holder containing the test chemical; forcefully pipette and re-pipette 10 times • 3. From the holder, aliquot 400 μL into 3 cuvettes; forcefully pipette and re-pipette 3 times before dispensing into cuvettes Reading Results • 1. Measure at OD300 for all cuvettes
Skin corrosion by GHS Category 1 dermal corrosive chemicals results in the disintegration of the epidermis into the dermis.

Series [2] deals with alkaline phosphatase. As to the kind of experiment: Alkaline phosphatase experiment, third week: with and without discs. It counts as biochemical. From the text: Our next study focused on an in vitro method of detecting the potential of dermal corrosives to inhibit nonspecific phosphatases that may be released from the skin. We decided to test pure […] instead of relying on endogenous skin phosphatase. Alkaline phosphatase (Sigma Aldrich, St. Louis, MO) was purchased and suspended to make the reaction reagent (10,000 units). […] We note that the ratio used was 0.1 g/ml or 10% chemical—which is far in excess of any pharmaceutical applications. We further note that pharmaceutical enzyme inhibition tests, studies an use involve highly specific active site binding and these assays are conducted at ratios of micrograms-femtograms per ml. These studies are done at these ranges because these are the realistic concentrations for drug applications and therapeutics. […] So when a 50 Kg human consumes the tables, the tissues will be exposed at a 5 mg/50 kg=0.1 mg/kg=0.0000001 g/ml.
Next two quantitative methods were evaluated: 1) using the discs parts from our OptiSafe™ test method and 2) directly into the 24-well plate.
Preparation • 1. Alkaline phosphatase reaction reagent • a. Take 1 vial of AP, add 1 mL of PBS, mix by pipette/re-pipette 10 times • b. To a 50 mL conical tube, add 1 mL of the AP solution prepared above and 40 mL of PBS • 2. Prepare two 24-well plates (1 with discs, 1 without discs) • 3. […] Aliquot 200 μL PNPP and PBS Procedure • 1. Plate 1 (No Discs) • a. Add 1.25 mL from the prepared PBS-AP conical tube to each well (11 wells) • b. Add 100 μL of the test material to the well, mix with the same pipette tip, dispose and repeat for the rest of the test materials • c. Wrap the plate in saran wrap and place into the container • 2. Plate 2 (Discs) • a. Configure the 11 discs in the plate so the plate cover is stable • b. Add 1.25 mL from the prepared PBS-AP conical tube to each well (11 wells) • c. Add 100 μL of the test material to the center of the disc and repeat for the rest of the test materials • d. Put the plate cover on and place into the container • 3. […] Incubate for 1 hour Reading Results • 1. Measure at OD405

The test system of a further series is skin. As to conditions: cited from earlier work.
The mark [3] stands for this setting: fresh porcine skin, 140 μL test chemical, >3A = outside readable range.
Setting [4] is: frozen porcine skin with fat layer removed.
Where [5] appears, read: skin, chemical lists of the experiments.

SMILES strings stand for the structures. Several values for one entry are separate records, joined by “and”; a condition that tells them apart may be missing. Equal values may be shown once. Read-outs that look alike come from different tables or passages of the source. Bounds are passed on as bounds.

As for `OCCc1ccccc1` [Phenylethyl alcohol], in the series on alkaline phosphatase [1], the “A2 - Results AVG” value is reported as 3.303, the “A2 - Results R1” value worked out at 3.342 and the “A2 - Results R3” value worked out at 3.287.
Taken in the same sequence, the figures for `CC(C)(C)c1ccccc1O` [2-tert-Butylphenol] were 2.615, 2.829 and 2.448.
`CC(C)O` [Isopropanol]: in the series with alkaline phosphatase [1], the “A2 - Results AVG” value was found to be 2.528, the “A2 - Results R1” value is given as 2.294 and the “A2 - Results R3” value is 2.389.
For the compound `CCCCCCCCCCCCCC(=O)OC(C)C` [Isopropyl Myristate], in the series on alkaline phosphatase [1], the “A2 - Results AVG” value worked out at 3.339, the “A2 - Results R1” value turned out to be 3.413 and the “A2 - Results R3” value worked out at 3.360.
The compound `NCCO` [Ethanolamine] had an OD190 with porcine skin (setting [3]) of over 3A. Besides, in the series with porcine skin (fresh porcine skin), the OD290 is 0.848 and 1.169; the OD300 was 0.711 and 1.044. Further, in the series with porcine skin (setting [4]), the OD190 was 0.761 and 0.800; the OD290 is 0.168 and 0.093. In the series with porcine skin (frozen porcine skin), the OD290 is 0.708 and 0.767; the OD300 is 0.524 and 0.598. Further, in the series on phosphatase, the “percent of phosphatase measured (optical density compared to the naïve condition), average” value (“percent of phosphatase measured … average” below) amounted to 19.9%; the “percent of phosphatase measured (optical density compared to the naïve condition)” value was 20.1% and 19.6%. Besides, in the series on alkaline phosphatase [2], the “raw optical density reading (PNPP), with discs (FIG. 3A)” value is 0.170 and 0.166 and 0.172; the “raw optical density reading (PNPP), without discs (FIG. 3B)” value is 0.174 and 0.185 and 0.175. Moreover, in the series with skin (rabbit, in vivo), the Corrosive result is “Yes”.
For `BrCCc1ccccc1` [(2-Bromoethyl)benzene], in the series with porcine skin (fresh porcine skin), the OD290 is 0.125 and 0.133; the OD300 is 0.080 and 0.094. In the series on porcine skin (setting [4]), the OD190 is 0.131 and 0.144; the OD290 is reported as 0.071; the OD300 is 0.030 and 0.034. In the series on porcine skin (frozen porcine skin), the OD290 was 0.279 and 0.254; the OD300 is 0.137 and 0.128. For the same compound, in the series with phosphatase, the “percent of phosphatase measured … average” value turned out to be 100.0% and the “percent of phosphatase measured (optical density compared to the naïve condition)” value was 100.0%.
Turning to `CC(C=O)Cc1ccc(C(C)C)cc1` (centres unmarked) [Cyclamen aldehyde], the OD290 in the series with porcine skin (fresh porcine skin) amounted to 0.290. Also, in the series on phosphatase, the “percent of phosphatase measured … average” value amounted to 100.0% and the “percent of phosphatase measured (optical density compared to the naïve condition)” value came to 100.0%. In addition, in the series on alkaline phosphatase [1], the “A2 - Results AVG” value was 2.777, the “A2 - Results R1” value worked out at 2.736 and the “A2 - Results R3” value was 2.845. The Corrosive entry in the series with skin (Yes/No) was “No”. The “in vivo GHS” value with skin (setting [5]) was “Cat. 2”.
Take `CCCCCBr` [1-Bromopentane]: in the series with alkaline phosphatase [1], the “A2 - Results AVG” value is recorded as 2.686, the “A2 - Results R1” value is recorded as 2.590 and the “A2 - Results R3” value worked out at 2.598. In addition, the “in vivo GHS” value in the series on skin (setting [5]) was “Cat. 2”.
Regarding `CC(=O)OCc1ccccc1` [Benzyl Acetate], in the series on alkaline phosphatase [1], the “A2 - Results AVG” value stood at 3.385, the “A2 - Results R1” value amounted to 3.42 and the “A2 - Results R3” value was determined as 3.484.
For the compound `CC(CC=O)CCCC(C)(C)O` (centres unmarked) [Hydroxycitronellal], in the series with alkaline phosphatase [1], the “A2 - Results AVG” value is reported as 2.585, the “A2 - Results R1” value is recorded as 2.513 and the “A2 - Results R3” value worked out at 3.089.
As to `CCCSSCCC` [di-n-Propyl disulfide], the OD190 with porcine skin (setting [3]) is 0.419 and 0.400. In the series with porcine skin (fresh porcine skin), the OD290 is 0.139 and 0.137; the OD300 is 0.105 and 0.096. In the series with porcine skin (setting [4]), the OD190 is 0.443 and 0.405; the OD290 is 0.082 and 0.063; the OD300 was 0.031 and 0.018. In addition, in the series with porcine skin (frozen porcine skin), the OD190 was 0.314 and 0.396; the OD290 was 0.294 and 0.240; the OD300 was 0.161 and 0.119. In addition, in the series on phosphatase, the “percent of phosphatase measured … average” value was 69.9%; the “percent of phosphatase measured (optical density compared to the naïve condition)” value is 68.1% and 71.6%. Also, in the series with alkaline phosphatase [1], the “A2 - Results AVG” value was found to be 2.472, the “A2 - Results R1” value worked out at 2.649 and the “A2 - Results R3” value worked out at 2.368. In the series on skin (Yes/No), the Corrosive result is “No”. Further, in the series with skin (setting [5]), the “in vivo GHS” value was “Cat. 2”.
In the case of `CC/C=C\CC1=C(C)CCC1=O`, in the series with alkaline phosphatase [1], the “A2 - Results AVG” value worked out at 2.527, the “A2 - Results R1” value turned out to be 2.405 and the “A2 - Results R3” value is listed as 2.704. The “in vivo GHS” value with skin (rabbit, in vivo) was “Cat. 2”.
With `CC(C)=CCC/C(C)=C/CO`, in the series with alkaline phosphatase [1], the “A2 - Results AVG” value was 1.894, the “A2 - Results R1” value came out at 1.876 and the “A2 - Results R3” value is given as 1.956. Besides, the “in vivo GHS” value in the series with skin (setting [5]) was “Cat. 2”.
With `CC(C)(O)CCc1ccccc1` [2-Methyl-4-phenyl-2-butanol], in the series on porcine skin (fresh porcine skin), the OD290 is 0.339 and 0.426; the OD300 is 0.272 and 0.371. In the series with porcine skin (setting [4]), the OD190 was 0.215 and 0.322; the OD290 is 0.079 and 0.094; the OD300 was 0.026 and 0.052. In addition, in the series on porcine skin (frozen porcine skin), the OD190 was 0.338 and 0.362; the OD290 was 0.496 and 0.637; the OD300 is 0.342 and 0.497. Moreover, in the series on phosphatase, the “percent of phosphatase measured … average” value is on record as 99.3%; the “percent of phosphatase measured (optical density compared to the naïve condition)” value is 98.6% and 100.0%. Also, the Corrosive result in the series with skin (Yes/No) is reported as “No”.
In the case of `OCCOCCOCCO` [Triethylene glycol], in the series with phosphatase, the “percent of phosphatase measured … average” value turned out to be 28.9%; the “percent of phosphatase measured (optical density compared to the naïve condition)” value is 29.5% and 28.2%. In addition, the Corrosive result with skin (rabbit, in vivo) is “No”.
Consider `CCCCCCCCCCO` [1-Decanol], for which, in the series on alkaline phosphatase [1], the “A2 - Results AVG” value turned out to be 2.373, the “A2 - Results R1” value was 2.205 and the “A2 - Results R3” value is recorded as 2.472. The “in vivo GHS” value in the series on skin (rabbit, in vivo) was “Cat. 2”.
With `CC1=CCC(C(C)(C)O)CC1` (stereo not drawn) [alpha-Terpineol], in the series on alkaline phosphatase [1], the “A2 - Results AVG” value turned out to be 2.589, the “A2 - Results R1” value came out at 2.223 and the “A2 - Results R3” value turned out to be 2.793. Besides, in the series with skin (rabbit, in vivo), the “in vivo GHS” value is recorded as “Cat. 2”.
For `C=C(C)[C@@H]1CC=C(CO)CC1` [p-Metha-1,8-dien-7-ol], in the series on alkaline phosphatase [1], the “A2 - Results AVG” value worked out at 2.793, the “A2 - Results R1” value is given as 2.757 and the “A2 - Results R3” value is 2.868. Besides, the “in vivo GHS” value in the series on skin (setting [5]) was “Cat. 2”.
In the case of `O=C(OCc1ccccc1)c1ccccc1O` [Benzyl Salicylate], in the series with alkaline phosphatase [1], the “A2 - Results AVG” value came to 3.317, the “A2 - Results R1” value is 3.345 and the “A2 - Results R3” value is recorded as 3.333.
